In PubChem BioAssay AID1259411 (Chemical Carcinogenesis Research Information System (CCRIS), 2018):
Calls of active or inactive are those of the source. The rule behind the calls is not given here.

System: rodent carcinogenicity bioassays, tumor incidence
Experiment: CCRIS carcinogenicity studies
Source text: The CCRIS database contains chemical records with carcinogenicity, mutagenicity, tumor promotion, and tumor inhibition test results. It was developed by the National Cancer Institute (NCI). Data are derived from studies cited in primary journals, current awareness tools, NCI reports, and other sources. Test results have been reviewed by experts in carcinogenesis and mutagenesis.
CCRIS provides historical information from the years 1985 - 2011. It is no longer updated.
This is an archive assay for CCRIS carcinogenicity studies.

## COc1cc(/C=C/C(=O)CC(=O)/C=C/c2ccc(O)c(OC)c2)ccc1O
Species: MOUSE, Strain/Sex: B6C3F1/FEMALE, Route: ORAL, Dose: 0, 2000, 10000, 50000 PPM IN FEED FOR 104 WK (STUDY DURATION: 104 WK), Dose: 0, 2000, 10000, 50000 PPM IN FEED FOR 104 WK (STUDY DURATION: 104 WK), Tumor Site: Type of Lesion: LIVER: HEPATOCELLULAR ADENOMA, HEPATOCELLULAR ADENOMA OR CARCINOMA
  carcinogen call: equivocal
Species: MOUSE, Strain/Sex: B6C3F1/MALE, Route: ORAL, Dose: 0, 2000, 10000, 50000 PPM IN FEED FOR 104 WK (STUDY DURATION: 104 WK), Dose: 0, 2000, 10000, 50000 PPM IN FEED FOR 104 WK (STUDY DURATION: 104 WK), Tumor Site: Type of Lesion: LIVER: HEPATOCELLULAR ADENOMA, HEPATOCELLULAR ADENOMA OR CARCINOMA, SMALL INTESTINE: CARCINOMA
  carcinogen call: equivocal
Species: RAT, Strain/Sex: F344/FEMALE, Route: ORAL, Dose: 0, 2000, 10000, 50000 PPM IN FEED FOR 104 WK (STUDY DURATION: 104 WK), Dose: 0, 2000, 10000, 50000 PPM IN FEED FOR 104 WK (STUDY DURATION: 104 WK), Tumor Site: Type of Lesion: CLITORAL GLAND: ADENOMA, ADENOMA OR CARCINOMA
  carcinogen call: equivocal
Species: RAT, Strain/Sex: F344/MALE, Route: ORAL, Dose: 0, 2000, 10000, 50000 PPM IN FEED FOR 104 WK (STUDY DURATION: 104 WK), Dose: 0, 2000, 10000, 50000 PPM IN FEED FOR 104 WK (STUDY DURATION: 104 WK)
  carcinogen call: inactive; negative

## Cc1cc(O)c2c(c1)C(=O)c1cc(O)cc(O)c1C2=O
Species: MOUSE, Strain/Sex: B6C3F1/FEMALE, Route: ORAL, Dose: 0, 312, 625, 1250 PPM IN DIET FOR 105 WK (STUDY DURATION: 105 WK), Dose: 0, 312, 625, 1250 PPM IN DIET FOR 105 WK (STUDY DURATION: 105 WK)
  carcinogen call: inactive; negative
Species: MOUSE, Strain/Sex: B6C3F1/MALE, Route: ORAL, Dose: 0, 160, 312, 625 PPM IN DIET FOR 105 WK (STUDY DURATION: 105 WK), Dose: 0, 160, 312, 625 PPM IN DIET FOR 105 WK (STUDY DURATION: 105 WK), Tumor Site: Type of Lesion: KIDNEY: RENAL TUBULE ADENOMA, RENAL TUBULE CARCINOMA, RENAL TUBULE ADENOMA OR CARCINOMA
  carcinogen call: equivocal
Species: RAT, Strain/Sex: F344/FEMALE, Route: ORAL, Dose: 0, 280, 830, 2500 PPM IN DIET FOR 105 WK (STUDY DURATION: 105 WK), Dose: 0, 280, 830, 2500 PPM IN DIET FOR 105 WK (STUDY DURATION: 105 WK), Tumor Site: Type of Lesion: ZYMBAL GLAND: CARCINOMA
  carcinogen call: equivocal
Species: RAT, Strain/Sex: F344/MALE, Route: ORAL, Dose: 0, 280, 830, 2500 PPM IN DIET FOR 105 WK (STUDY DURATION: 105 WK), Dose: 0, 280, 830, 2500 PPM IN DIET FOR 105 WK (STUDY DURATION: 105 WK)
  carcinogen call: inactive; negative

## CC1CN(N=O)CCC1=O (centres undefined)
Species: RAT, Strain/Sex: F344/FEMALE, Route: ORAL, Dose: 0, 80 ML OF SOLUTION OF 126 MG/L IN NEUTRAL DEIONIZED DRINKING WATER 5 D/WK FOR 26 WK (STUDY DURATION: 40 WK), Tumor Site: Type of Lesion: NASAL CAVITY: SQUAMOUS CELL CARCINOMA, TONGUE: TUMOR, FORESTOMACH: TUMOR, ESOPHAGUS: TUMOR, TRACHEA: TUMOR, Tumor Site: Type of Lesion: NASAL CAVITY: SQUAMOUS CELL CARCINOMA, TONGUE: TUMOR, FORESTOMACH: TUMOR, ESOPHAGUS: TUMOR, TRACHEA: TUMOR
  carcinogen call: active; positive

## COc1cc2c(c3oc(=O)c4c(c13)CCC4=O)[C@@H]1CCO[C@@H]1O2
Species: HUMAN, Route: ORAL, Tumor Site: Type of Lesion: LIVER
  carcinogen call: active; positive
Species: RAT, Route: ORAL, Tumor Site: Type of Lesion: LIVER
  carcinogen call: active; positive

## NS(=O)(=O)c1cc2c(cc1Cl)NCNS2(=O)=O
Species: MOUSE, Strain/Sex: B6C3F1/FEMALE, Route: ORAL, Dose: 0, 2500, 5000 PPM IN FEED FOR 103-104 WK (STUDY DURATION: 106 WK), Dose: 0, 2500, 5000 PPM IN FEED FOR 103-104 WK (STUDY DURATION: 106 WK)
  carcinogen call: inactive; negative
Species: MOUSE, Strain/Sex: B6C3F1/MALE, Route: ORAL, Dose: 0, 2500, 5000 PPM IN FEED FOR 103-104 WK (STUDY DURATION: 106 WK), Dose: 0, 2500, 5000 PPM IN FEED FOR 103-104 WK (STUDY DURATION: 106 WK), Tumor Site: Type of Lesion: LIVER: HEPATOCELLULAR ADENOMA OR CARCINOMA
  carcinogen call: equivocal
Species: RAT, Strain/Sex: F344/FEMALE, Route: ORAL, Dose: 0, 0.1% IN DIET FOR 104 WK (STUDY DURATION: 130 WK)
  carcinogen call: inactive; negative
Species: RAT, Strain/Sex: F344/FEMALE, Route: ORAL, Dose: 0, 250, 500, 2000 PPM IN FEED FOR 105-106 WK (STUDY DURATION: 106 WK), Dose: 0, 250, 500, 2000 PPM IN FEED FOR 105-106 WK (STUDY DURATION: 106 WK)
  carcinogen call: inactive; negative
Species: RAT, Strain/Sex: F344/MALE, Route: ORAL, Dose: 0, 0.1% IN DIET FOR 104 WK (STUDY DURATION: 130 WK)
  carcinogen call: inactive; negative
Species: RAT, Strain/Sex: F344/MALE, Route: ORAL, Dose: 0, 250, 500, 2000 PPM IN FEED FOR 105-106 WK (STUDY DURATION: 106 WK), Dose: 0, 250, 500, 2000 PPM IN FEED FOR 105-106 WK (STUDY DURATION: 106 WK)
  carcinogen call: inactive; negative

## COc1ccc(N)cc1
Species: MOUSE, Strain/Sex: B6C3F1/FEMALE, Route: ORAL, Dose: 0, 0.5, 1.0% OF DIET FOR 103 WK (STUDY DURATION: 104 WK), Dose: 0, 0.5, 1.0% OF DIET FOR 103 WK (STUDY DURATION: 104 WK)
  carcinogen call: inactive; negative
Species: MOUSE, Strain/Sex: B6C3F1/MALE, Route: ORAL, Dose: 0, 0.5, 1.0% OF DIET FOR 103 WK (STUDY DURATION: 104 WK), Dose: 0, 0.5, 1.0% OF DIET FOR 103 WK (STUDY DURATION: 104 WK)
  carcinogen call: inactive; negative
Species: RAT, Strain/Sex: F344/FEMALE, Route: ORAL, Dose: 0, 0.3, 0.6% OF DIET FOR 103 WK (STUDY DURATION: 104-105 WK), Dose: 0, 0.3, 0.6% OF DIET FOR 103 WK (STUDY DURATION: 104-105 WK)
  carcinogen call: inactive; negative
Species: RAT, Strain/Sex: F344/MALE, Route: ORAL, Dose: 0, 0.3, 0.6% OF DIET FOR 103 WK (STUDY DURATION: 104-105 WK), Dose: 0, 0.3, 0.6% OF DIET FOR 103 WK (STUDY DURATION: 104-105 WK), Tumor Site: Type of Lesion: PREPUTIAL GLAND: ADENOMA OR CARCINOMA
  carcinogen call: equivocal

## ClC#CCl
Species: MOUSE, Strain/Sex: NMRI/FEMALE, Route: INHALATION, Dose: 0, 2 PPM 6 HR/D 1 D/WK FOR 18 MO (STUDY DURATION: LIFE), Tumor Site: Type of Lesion: KIDNEY: CYSTADENOMA, LUNG: ADENOMA, HARDERIAN GLAND: CYSTADENOMA, Tumor Site: Type of Lesion: KIDNEY: CYSTADENOMA, LUNG: ADENOMA, HARDERIAN GLAND: CYSTADENOMA
  carcinogen call: active; positive
Species: MOUSE, Strain/Sex: NMRI/FEMALE, Route: INHALATION, Dose: 0, 2 PPM 6 HR/D 2 D/WK FOR 18 MO (STUDY DURATION: LIFE), Tumor Site: Type of Lesion: HARDERIAN GLAND: CYSTADENOMA
  carcinogen call: active; positive
Species: MOUSE, Strain/Sex: NMRI/FEMALE, Route: INHALATION, Dose: 0, 9 PPM 6 HR/D 1 D/WK FOR 12 MO (STUDY DURATION: LIFE), Tumor Site: Type of Lesion: KIDNEY: CYSTADENOMA, HARDERIAN GLAND: CYSTADENOMA
  carcinogen call: active; positive
Species: MOUSE, Strain/Sex: NMRI/MALE, Route: INHALATION, Dose: 0, 2 PPM 6 HR/D 1 D/WK FOR 18 MO (STUDY DURATION: LIFE), Tumor Site: Type of Lesion: KIDNEY: CYSTADENOMA, CYSTADENOCARCINOMA, HARDERIAN GLAND: CYSTADENOMA
  carcinogen call: active; positive
Species: MOUSE, Strain/Sex: NMRI/MALE, Route: INHALATION, Dose: 0, 2 PPM 6 HR/D 2 D/WK FOR 18 MO (STUDY DURATION: LIFE), Tumor Site: Type of Lesion: KIDNEY: CYSTADENOMA, HARDERIAN GLAND: CYSTADENOMA
  carcinogen call: active; positive
Species: MOUSE, Strain/Sex: NMRI/MALE, Route: INHALATION, Dose: 0, 9 PPM 6 HR/D 1 D/WK FOR 12 MO (STUDY DURATION: LIFE), Tumor Site: Type of Lesion: KIDNEY: CYSTADENOMA, CYSTADENOCARCINOMA
  carcinogen call: active; positive
Species: RAT, Strain/Sex: WISTAR/FEMALE, Route: INHALATION, Dose: 0, 14 PPM 6 HR/D 2 D/WK FOR 18 MO (STUDY DURATION: LIFE), Tumor Site: Type of Lesion: KIDNEY: CYSTADENOMA, LIVER: CHOLANGIOMA, HEMOPOIETIC SYSTEM: MALIGNANT LYMPHOMA, Tumor Site: Type of Lesion: KIDNEY: CYSTADENOMA, LIVER: CHOLANGIOMA, HEMOPOIETIC SYSTEM: MALIGNANT LYMPHOMA
  carcinogen call: active; positive
Species: RAT, Strain/Sex: WISTAR/MALE, Route: INHALATION, Dose: 0, 14 PPM 6 HR/D 2 D/WK FOR 18 MO (STUDY DURATION: LIFE), Tumor Site: Type of Lesion: KIDNEY: CYSTADENOMA, LIVER: CHOLANGIOMA
  carcinogen call: active; positive
